Measurements reported in PMC11830572, “5‐hydroxymethylcytosine features of portal venous blood predict metachronous liver metastases of colorectal cancer and reveal phosphodiesterase 4 as a therapeutic target” (Clinical and Translational Medicine, 2025).
Entries after “also recorded” stand apart in the source; their conditions may differ. Read-outs that look alike come from different tables or passages of the source. Each block holds one compound with its values, some of them ahead of it.

What was measured:
[1] = system: HIF-1α, CCN2, p-AKT and p-ERK in MC38 cells; experiment: Western blot / immunofluorescence / mRNA of HIF-1α, CCN2, p-AKT, p-ERK in MC38 cells; assay type: cell-based, murine; details: for mRNA and protein levels of CCN2: HIF-1α inhibitor treatment
Protocol: Western blot was performed using the following antibodies: anti‐phospho‐ERK (CST, #4370), anti‐ERK (CST, #4695), anti‐phospho‐AKT (CST, #4060), anti‐AKT (CST, #9272), anti‐beta‐tubulin (CST, #86298), anti‐PDE4D (Abcam, ab171750) and anti‐CCN2 (Abcam, ab6992). […] The blots were blocked with 5% non‐fat milk and incubated overnight at 4°C with the primary antibody. Afterward, the blots were incubated for 1 h with the secondary antibody and subsequent imaging was carried out by BIO‐RAD Chemidoc MP imaging system. Relative protein levels were corrected for beta‐tubulin or beta‐actin.

MC38 cells [2] = experiment: Transwell migration assay, MC38; assay type: cell-based, murine
Protocol: To access cell migration, 1.0 × 10^5 cells were seeded into the 8‐µm‐pore upper chambers in serum‐free RPMI1640 and incubated in RPMI1640 with 10% FBS of the lower chamber of 12‐well plates (Corning Star). After normal culture for 24 h, cells were permeabilised with 100% methanol and then stained with .1% crystal violet.

PDE4 = PDE4 (Homo sapiens, UniProt Q08499); experiment: In vitro enzymatic activity assay: inhibitory activities of 2-arylbenzofurans towards PDE4 (3H-cAMP substrate); assay type: biochemical; details: for inhibition at 0.1 µM: read-out: PDE4 inhibition 100 nM
Protocol: Protocols for the expression and enzyme assay of PDE isoforms were similar to our previous works.[98], [99], [100] Briefly, the recombinant plasmid was transformed into Escherichia coli competent cells BL21 (CodonPlus) and cultured in LB medium at 37°C until the optical density at 600 nm (A600) reached .6–.8. Induction of protein expression was achieved by adding .1 mM isopropyl β‐D‐thiogalactopyranoside (IPTG), followed by further incubation at 15°C for 24 h. The recombinant proteins were then purified using a Ni‐NTA column (Qiagen), a Q column (GE Healthcare), and a Superdex 100 column (GE Healthcare), and Superdex 100 column (GE Healthcare). The enzymatic activities of PDEs were measured by using ^3H‐cAMP or ^3H‐cGMP (GE Healthcare) as substrates. The assay buffer contains 20 mM Tris‐HCl (pH 7.5), 10 mM MgCl2 or 4.0 mM MnCl2, 1.0 mM dithiothreitol, and 10–30 nM ^3H‐cAMP or ^3H‐cGMP (20 000–30 000 cpm/assay). The reaction was conducted at room temperature for 15 min and then terminated by adding .2 M ZnSO4. The reaction products, 3H‐AMP or 3H‐GMP, were precipitated with .2 N Ba(OH)2, while unreacted 3H‐cAMP or 3H‐cGMP remained in the supernatant. […] For the measurement of IC50, eight concentrations at least were used and IC50 values were calculated by the nonlinear regression.

PDE3A (679-1087) = PDE3A (679-1087) (Homo sapiens, UniProt Q14432); experiment: biochemical
Protocol: (§2) Briefly, the recombinant plasmid was transformed into Escherichia coli competent cells BL21 (CodonPlus) and cultured in LB medium at 37°C until the optical density at 600 nm (A600) reached .6–.8. Induction of protein expression was achieved by adding .1 mM isopropyl β‐D‐thiogalactopyranoside (IPTG), followed by further incubation at 15°C for 24 h. The recombinant proteins were then purified using a Ni‐NTA column (Qiagen), a Q column (GE Healthcare), and a Superdex 100 column (GE Healthcare), and Superdex 100 column (GE Healthcare). The enzymatic activities of PDEs were measured by using ^3H‐cAMP or ^3H‐cGMP (GE Healthcare) as substrates. The assay buffer contains 20 mM Tris‐HCl (pH 7.5), 10 mM MgCl2 or 4.0 mM MnCl2, 1.0 mM dithiothreitol, and 10–30 nM ^3H‐cAMP or ^3H‐cGMP (20 000–30 000 cpm/assay). The reaction was conducted at room temperature for 15 min and then terminated by adding .2 M ZnSO4. The reaction products, 3H‐AMP or 3H‐GMP, were precipitated with .2 N Ba(OH)2, while unreacted 3H‐cAMP or 3H‐cGMP remained in the supernatant. The radioactivity of the supernatant was measured in 2.5 mL of Ultima Gold liquid scintillation cocktail (Fisher Scientific) using a PerkinElmer 2910 liquid scintillation counter. For the measurement of IC50, eight concentrations at least were used and IC50 values were calculated by the nonlinear regression.

PDE1B (10-487) = PDE1B (10-487) (Homo sapiens, UniProt Q01064); experiment: biochemical
Protocol: as §2

PDE7A1 (130-482) = PDE7A1 (130-482) (Homo sapiens, UniProt Q13946); experiment: In vitro enzymatic activity assay, PDE selectivity panel: PDE7A1; assay type: biochemical
Protocol: as §2

[3] = Safety in liver metastasis model mice (body weight curve, H&E of heart, lung, kidney); assay type: in vivo
Protocol: (§1) A murine colon cancer cell line (MC38) stably transfected with the firefly luciferase (Luc) gene (Addgene plasmid #17477) was generated. To establish a model of liver metastases mice were anaesthetised with ketamine. Then the spleens were exposed to allow direct intrasplenic injections of 5 × 10^5 Luc‐labelled MC38 (MC38‐Luci) cells in 50 µL 1 mM EDTA in PBS. Mice were sacrificed 18 days after injection of the tumour cells, then spleen and liver were analysed immediately. For ex vivo imaging, female mice were administered by intraperitoneal injection with d‐luciferin (150 mg/kg; Perkin Elmer). Ten minutes later, mice were sacrificed, the livers were collected and […] the ex vivo IVIS Lumina III system (Perkin Elmer). Collected images were analysed using Living Image 4.3.1 software (Perkin Elmer): ROIs were drawn around each liver and radiant efficiency calculated.

PDE5A1 (535-860) = PDE5A1 (535-860) (Homo sapiens, UniProt O76074); experiment: In vitro enzymatic activity assay, PDE selectivity panel: PDE5A1; assay type: biochemical
Protocol: as §2

MC38 cells [4] = experiment: Cell viability assay (CCK8); assay type: cell-based, murine
Protocol: A total of 2000–5000 cells were seeded in 96‐well plates for an overnight culture. The medium was then replaced with fresh medium supplemented with varying concentrations of drugs. […]

[5] = 2-week repeated administration in rats: overall long-term safety
[6] = Emetic assay on beagle dogs; assay type: in vivo
Protocol: All animal care and experimental protocols were conducted in accordance with the Guide for the Care and Use of Laboratory Animals (National Institutes of Health Publication, revised 1996, no. 86‐23, Bethesda, MD) and were approved by the Institutional Animal Research Ethics Committee of Sun Yat‐Sen University. (IACUC numbers: […]‐2021‐000130). […] Animals are watched continuously for 180 min for the behaviour of retching, excessive salivation, and vomiting.

MC38 liver metastases = experiment: Liver metastasis model, intrasplenic injection of MC38-Luc cells; assay type: in vivo, mice; details: for bioluminescence of mice in the liver: day 18
Protocol: as §1

PDE4B2 = system: PDE4B2; set-up: method as in PMID 22483586; details: cited from earlier work
PDE4D2 = system: PDE4D2; set-up: method as in PMID 22483586; details: cited from earlier work
MC38 cells [7] = experiment: RNA sequencing of treated MC38 cells; assay type: cell-based, murine
Protocol: RNA integrity was assessed using the RNA Nano 6000 Assay Kit on the Bioanalyzer 2100 system (Agilent Technologies, CA, USA). Total RNA was used as input for RNA sample preparation. Briefly, mRNA was purified from total RNA using poly‐T oligo‐attached magnetic beads. Fragmentation was performed using divalent cations at elevated temperature in First Strand Synthesis Reaction Buffer (5X). First‐strand cDNA was synthesised using a random hexamer primer and M‐MuLV Reverse Transcriptase (RNase H‐). Second‐strand cDNA synthesis was then carried out using DNA Polymerase I and RNase H. The remaining overhangs were converted to blunt ends via exonuclease/polymerase activities. After adenylation of the 3′ ends of the DNA fragments, adaptors with a hairpin loop structure were ligated to prepare for hybridisation. To select cDNA fragments in the preferred size range of 370–420 bp, the library fragments were purified using the AMPure XP system (Beckman Coulter, Beverly, USA). PCR amplification was performed using Phusion High‐Fidelity DNA polymerase, universal PCR primers, and an index (X) primer. The PCR products were then purified again using the AMPure XP system, and the library quality was assessed on the Agilent Bioanalyzer 2100 system. […] After cluster generation, the library preparations were sequenced on the Illumina NovaSeq platform, generating 150 bp paired‐end reads.

MC38 cells [8] = experiment: Wound healing scratch migration assay; assay type: cell-based, murine; details: 24 h and 48 h
Protocol: For migration assays (wound healing assays), cells were seeded in 6‐well plates and grown until confluence. Cells were scraped in each well, the medium was replaced with medium with 2% FBS to block cell proliferation. After 24 h or 48 h, the photographs of each well were obtained.

[9] = mice, MC38-Luc intrasplenic, two weeks of treatment

Chain of PDE4 (Q08499 388-715): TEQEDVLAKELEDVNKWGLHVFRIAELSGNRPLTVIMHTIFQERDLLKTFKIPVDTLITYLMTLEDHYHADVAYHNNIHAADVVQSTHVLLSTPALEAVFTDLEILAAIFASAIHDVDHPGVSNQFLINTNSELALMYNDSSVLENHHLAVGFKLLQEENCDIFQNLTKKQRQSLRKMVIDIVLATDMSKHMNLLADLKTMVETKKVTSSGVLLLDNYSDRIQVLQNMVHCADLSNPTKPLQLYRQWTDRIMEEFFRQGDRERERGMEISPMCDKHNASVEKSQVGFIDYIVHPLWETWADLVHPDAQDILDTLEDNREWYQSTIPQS
Chain of PDE3A (679-1087) (Q14432 679-1087): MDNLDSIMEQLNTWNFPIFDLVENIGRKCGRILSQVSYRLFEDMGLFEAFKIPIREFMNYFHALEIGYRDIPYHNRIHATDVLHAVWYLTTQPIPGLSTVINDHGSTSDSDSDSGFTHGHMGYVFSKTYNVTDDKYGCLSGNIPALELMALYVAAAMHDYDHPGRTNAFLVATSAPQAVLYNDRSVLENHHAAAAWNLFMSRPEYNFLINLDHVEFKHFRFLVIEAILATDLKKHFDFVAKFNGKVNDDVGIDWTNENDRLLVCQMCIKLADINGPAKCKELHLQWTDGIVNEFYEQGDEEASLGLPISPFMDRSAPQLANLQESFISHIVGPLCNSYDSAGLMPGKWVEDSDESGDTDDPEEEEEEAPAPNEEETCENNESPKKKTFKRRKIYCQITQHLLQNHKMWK
Chain of PDE7A1 (130-482) (Q13946 130-482): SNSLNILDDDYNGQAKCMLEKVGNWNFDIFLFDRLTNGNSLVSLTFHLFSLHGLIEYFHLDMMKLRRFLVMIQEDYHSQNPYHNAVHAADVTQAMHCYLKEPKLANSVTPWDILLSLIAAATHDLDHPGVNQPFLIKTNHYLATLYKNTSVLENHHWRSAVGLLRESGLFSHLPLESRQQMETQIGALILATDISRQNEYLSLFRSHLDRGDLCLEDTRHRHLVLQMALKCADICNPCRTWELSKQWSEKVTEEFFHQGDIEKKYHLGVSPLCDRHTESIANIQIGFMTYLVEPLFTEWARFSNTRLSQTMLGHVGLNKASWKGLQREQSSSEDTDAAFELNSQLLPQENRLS
Chain of PDE1B (10-487) (Q01064 10-487): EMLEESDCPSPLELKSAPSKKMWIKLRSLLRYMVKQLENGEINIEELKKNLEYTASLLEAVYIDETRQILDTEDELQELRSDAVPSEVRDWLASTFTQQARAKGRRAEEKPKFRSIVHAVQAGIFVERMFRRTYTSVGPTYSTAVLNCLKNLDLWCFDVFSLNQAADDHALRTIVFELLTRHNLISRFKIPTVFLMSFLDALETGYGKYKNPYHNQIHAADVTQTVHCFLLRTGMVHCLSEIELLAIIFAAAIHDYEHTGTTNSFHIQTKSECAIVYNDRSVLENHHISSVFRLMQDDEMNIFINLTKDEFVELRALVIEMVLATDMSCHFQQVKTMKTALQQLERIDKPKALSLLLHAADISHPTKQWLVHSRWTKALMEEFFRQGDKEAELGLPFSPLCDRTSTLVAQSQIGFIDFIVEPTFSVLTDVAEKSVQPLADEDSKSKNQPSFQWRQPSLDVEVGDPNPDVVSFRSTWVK

Structure (SMILES): COc1cc2c(cc1O)CC[C@@H]1[C@@H]2CC[C@]2(C)[C@@H](O)CC[C@@H]12 [2‐MEOE2]
mRNA and protein levels of CCN2 [1]: significant decrease

Structure (SMILES): C=C[C@@]1(C)CC(=O)[C@]2(O)[C@@]3(C)[C@@H](O)CCC(C)(C)[C@@H]3[C@H](O)[C@H](OC(C)=O)[C@@]2(C)O1 [FSK, forskolin]
levels of CCN2, p-AKT and p-ERK [1]: significantly inhibited | migration, transwell assay (MC38 cells [2]): quantitatively similar to those of roflumilast

Structure (SMILES): O=S(=O)(NCCSSCCNS(=O)(=O)c1cc(Cl)ccc1Cl)c1cc(Cl)ccc1Cl [KC7F2]
mRNA and protein levels of CCN2 [1]: significant decrease

Structure (SMILES): Oc1ccc2cc(-c3ccc(OC(F)F)c(OCC4CC4)c3)oc2c1 [L11]
IC50 (PDE3A (679-1087)): > 10000 nM | IC50 (PDE1B (10-487)): > 10000 nM | IC50 (PDE7A1 (130-482)): 2290 nM | safety: body weight and H&E of heart, lung and kidney [3]: safety of compound L11 was observed; also recorded: could not induce weight loss or any major organ damage | IC50 (PDE5A1 (535-860)): 3000 nM | levels of CCN2, p-AKT and p-ERK [1]: significantly repressed | cell viability / growth (CCK8 assay) (MC38 cells [4]): significantly inhibit the growth | IC50 (MC38 cells [4]; Mus musculus, MC-38): ~20000 nM | food intake, weight, haematology indicators and serum test indicators ([5]; 30 mg/kg or 100 mg/kg intraperitoneal injection for 2 weeks): no abnormal changes | adverse effects on body weight or other signs of overt toxicity ([5]; daily doses of up to 100 mg/kg for 2 weeks): did not cause any adverse effects | No. of animals with emesis/No. of test animals ([6]; 10 mg/kg po): 0/3 | emetic activity ([6]; oral dose of 10 mg/kg): did not induce emetic effects | bioluminescence of mice in the liver (MC38 liver metastases): significant decrease | liver metastases (liver images and bioluminescence images) (MC38 liver metastases; [9]): significantly inhibit tumour metastases | metastatic areas in the liver (H&E staining) (MC38 liver metastases; mice, after treatment): significantly suppressed liver metastases

Structure (SMILES): FC(F)Oc1ccc(-c2cc3ccccc3o2)cc1OC1CCCC1 [L12]
IC50 (PDE4): 910 nM | inhibition at 1 µM (PDE4): 73.3% | inhibition at 0.1 µM (PDE4): 13.2%

Structure (SMILES): Oc1ccc2cc(-c3ccc(OC(F)F)c(OC4CCCC4)c3)oc2c1 [L13]
IC50 (PDE4): 145 ± 2.3 nM | inhibition at 1 µM (PDE4): 92.2% | inhibition at 0.1 µM (PDE4): 42.7%

Structure (SMILES): NC1(c2ccc(-c3nc4ccn5c(=O)[nH]nc5c4cc3-c3ccccc3)cc2)CCC1 [MK2206]
migration, transwell assay (MC38 cells [2]): significantly inhibit MC38 metastases

Structure (SMILES): Oc1cc(O)cc(-c2cc3ccc(O)cc3o2)c1 [Moracin M]
IC50 (PDE4B2): 4500 nM | IC50 (PDE4D2): 2900 nM

Structure (SMILES): COc1cccc(-c2cc(=O)c3ccccc3o2)c1N [PD98095]
migration, transwell assay (MC38 cells [2]): significantly inhibit MC38 metastases

Structure (SMILES): O=C(Nc1c(Cl)cncc1Cl)c1ccc(OC(F)F)c(OCC2CC2)c1 [Roflumilast, roflumilast]
expression of eight cell adhesion pathway genes (CCN2, LAMB3, EGFL7, EPHA8, COL7A1, AMIGO2, COL6A3, CDH26) (MC38 cells [7]): relatively low expression | HIF-1α and CCN2 expression levels (western blot) ([1]; 24 h): inhibited | protein level of CCN2 (immunofluorescence) ([1]; 48 h): decreased significantly | cell viability / growth (CCK8 assay) (MC38 cells [4]): less toxicity | No. of animals with emesis/No. of test animals ([6]; 1.0 mg/kg po): 3/3 | migration, transwell assay (MC38 cells [2]; combined with siCCN2): could not inhibit tumour metastases | migration, transwell assay (MC38 cells [2]; combined with siHIF1A): Same result | migration, scratch wound closure (MC38 cells [8]): significantly inhibited the migration | bioluminescence of mice in the liver (MC38 liver metastases): significant decrease | liver metastases (liver images and bioluminescence images) (MC38 liver metastases; [9]): fewer metastatic lesions | metastasis sites, liver total flux (and liver weight), quantitative statistics (MC38 liver metastases; [9]): could inhibit liver metastasis

The remaining lines, values ahead:

inhibition at 1 µM (PDE4): 55.7% | inhibition at 0.1 µM (PDE4): 41.9%
Structure (SMILES): COc1cccc(Nc2cc(-c3cc4ccccc4o3)ccc2C(N)=O)c1 [L1]

IC50 (PDE4): 181 ± 13 nM | inhibition at 1 µM (PDE4): 68.5% | inhibition at 0.1 µM (PDE4): 48.6%
Structure (SMILES): COc1cccc(Nc2cc(-c3cc4ccc(O)cc4o3)ccc2C(N)=O)c1 [L2]

inhibition at 1 µM (PDE4): 24.1% | inhibition at 0.1 µM (PDE4): 17%
Structure (SMILES): COc1cccc(Nc2cc(-c3cc4cc(OC)ccc4o3)ccc2C(N)=O)c1 [L3]

inhibition at 1 µM (PDE4): 59.5% | inhibition at 0.1 µM (PDE4): 28.9%
Structure (SMILES): COc1cccc(Nc2cc(-c3cc4cccc(OC)c4o3)ccc2C(N)=O)c1 [L4]

inhibition at 1 µM (PDE4): 36.9% | inhibition at 0.1 µM (PDE4): 15.9%
Structure (SMILES): COc1cccc(Nc2cc(-c3cc4ccc(Cl)cc4o3)ccc2C(N)=O)c1 [L5]

inhibition at 1 µM (PDE4): 55.5% | inhibition at 0.1 µM (PDE4): 30.3%
Structure (SMILES): COc1cccc(Nc2cc(-c3cc4cc(F)ccc4o3)ccc2C(N)=O)c1 [L6]

IC50 (PDE4): 197 ± 37.4 nM | inhibition at 1 µM (PDE4): 77.5% | inhibition at 0.1 µM (PDE4): 44.1%
Structure (SMILES): NC(=O)c1ccc(-c2cc3ccc(O)cc3o2)cc1Nc1cccc(Cl)c1 [L7]

inhibition at 1 µM (PDE4): 61.6% | inhibition at 0.1 µM (PDE4): 30.6%
Structure (SMILES): NC(=O)c1ccc(-c2cc3ccc(O)cc3o2)cc1Nc1cccc(F)c1 [L8]

inhibition at 1 µM (PDE4): 65.8% | inhibition at 0.1 µM (PDE4): 39.1%
Structure (SMILES): NC(=O)c1ccc(-c2cc3ccc(O)cc3o2)cc1Nc1cc(F)cc(F)c1 [L9]

inhibition at 1 µM (PDE4): 37.4%
Structure (SMILES): FC(F)Oc1ccc(-c2cc3ccccc3o2)cc1OCC1CC1 [L10]
